Laboratory results as given in patent publication US20250031697A1, “METHODS AND COMPOSITIONS TO PREVENT PLANT PESTS AND PATHOGENS” (Impello Biosciences, Inc., priority 2021, published 2025).
Values joined by “and” are separate entries in the source; they are usually repeats but may differ in a detail not shown here. Identical values can stand only once.

Columns and labels:
Assay type in all cases: in vivo
Botrytis = assay: Field trial, MDJ foliar spray on 'Maverick' strawberries, Botrytis incidence on berries; details: MDJ approx. 5 mM, 50 gallons per acre, two foliar sprays
Method: Methyl dihydrojasmonate (MDJ) was applied to fields of strawberry to investigate the efficacy of MDJ in preventing Botriytis disease. A composition comprising 22.6% w/v MDJ, 49.8% v/v TWEEN-20, and water was diluted at a rate of 32 oz. (1 liter) per 50 gallons of water (approximately a 5 mM solution of MDJ). The composition was then applied (at a rate of 50 gallons per acre) to an acre of ‘Maverick’ strawberries grown in Watsonville, CA on Aug. 18, 2021 and again on Sep. 2, 2021 using an electrostatic backpack sprayer (foliar spray). Plants were harvested in October 2021. MDJ plants were compared to strawberries treated with the grower standard; a rotation of Pristine® (pyraclostrobin and boscalid), Merivon® (pyraclostrobin), Luna® (fluopyram and trifloxystrobin), and Elevate® (fenhexamid). […] Out of four replicates of 10 plants each, the average incidence of Botrytis on berries in the MDJ treated acre was 11%, compared to 18.75% in the grower standard population.

Botrytis cinerea = assay: Hemp inoculated with Botrytis cinerea, visual disease score 0-5 at harvest; details: 8 replicates
Method: Culturing Botrytis cinerea: A Botrytis cinerea isolate was cultured onto potato-dextrose agar (PDA). It was resisolated by taking a mycelial plug from the edge of actively growing cultures every 2-3 weeks to maintain active growing culture. It was maintained at 20° C. under continuous light (˜58 pEin m^−2 s^−1).
Inoculating hemp: The inoculum was prepared by flooding a full grown B. cinerea PDA plate with DI water and 0.1% Tween-20 to create a suspension of fungal spores. Spore count was quantified.
In the first inoculation, a suspension of 1.2×10^4 spores of B. cinerea/mL was created, and 1.5 mL was applied to the top cola/inflorescence of each plant. Hemp was inoculated in the first week of flowering, with application to the underdeveloped inflorescences.
In the second inoculation, a suspension of 1.5×10^5 spores of B. cinerea/mL was created, and sucrose was added to 1% concentration, and the plants were sprayed until drip using a backpack sprayer.
Inoculated plants were placed in a growth chamber or controlled growth environment with a constant temperature of 20-25° C. and 50-70% relative humidity.
Treatment Conditions: Treatments comprising 1 mM or 5 mM jasmonate (MDJ) were applied alone or alongside a biological (Continuum™). These treatment conditions were compared to control (no MDJ, no biological). Each treatment group had 8 replicates. […]

[1] = tested on: powdery mildew (Erysiphe necator); assay: Vineyard trial, MDJ on cabernet sauvignon grapes, powdery mildew on leaf and fruit samples under the microscope; details: MDJ approx. 5 mM, 50 gallons per acre, four applications; grape leaf and fruit samples
Method: Methyl dihydrojasmonate (MDJ) was applied to fields of grape to investigate the efficacy of MDJ in preventing bunch rot on (Botrytis cinerea) and powdery mildew (Erysiphe necator) on grapes. A composition comprising 22.6% w/v MDJ, 49.8% v/v TWEEN-20, and water was diluted at a rate of 32 oz. (1 liter) per 50 gallons of water (approximately a 5 mM solution of MDJ). The composition was then applied (at a rate of 50 gallons per acre) to three acres (1245 vines/acre) of a cabernet sauvignon variety grown in Napa Valley, CA. There was a total of four applications between June and September using a ground spray rig. Several leaf and fruit samples were collected to access the presence of powdery mildew under the microscope and compared to leaf and fruit of plants treated with the grower standard.

[2] = tested on: bunch rot (Botrytis cinerea); assay: Vineyard trial, MDJ on cabernet sauvignon grapes, laccase analysed as measure of Botrytis prevalence; details: MDJ approx. 5 mM, 50 gallons per acre, four applications, control = grower standard
Method: Methyl dihydrojasmonate (MDJ) was applied to fields of grape to investigate the efficacy of MDJ in preventing bunch rot on (Botrytis cinerea) and powdery mildew (Erysiphe necator) on grapes. A composition comprising 22.6% w/v MDJ, 49.8% v/v TWEEN-20, and water was diluted at a rate of 32 oz. (1 liter) per 50 gallons of water (approximately a 5 mM solution of MDJ). The composition was then applied (at a rate of 50 gallons per acre) to three acres (1245 vines/acre) of a cabernet sauvignon variety grown in Napa Valley, CA. There was a total of four applications between June and September using a ground spray rig. To investigate the prevalence of Botrytis, the enzyme laccase was analyzed. Laccase can negatively impact wine by causing premature browning of bottled white wine and color degradation in red wine. The MDJ treated group had 2 units/ml, whereas the control (grower standard) had 5 units/ml. This level in the control means that Botrytis problems can be expected during the wine making process, whereas in the MDJ treated group, the value of 2 units/ml means there will be no issues with Botrytis during the wine making process.

## CCCCCC1C(=O)CCC1CC(=O)OC (stereo not drawn) [MDJ, methyl dihydrojasmonate]
Botrytis; average of four replicates of 10 plants each
  Average % incidence of Botrytis on berries: 11%
Botrytis; single replicates 1-4, 10 plants each, strawberry berries
  % incidence of Botrytis: 10% and 16% and 7% and 11%
Botrytis cinerea; condition B: 1 mM MDJ foliar spray
  Average Disease Score: 2.625
Botrytis cinerea; condition C: 5 mM MDJ foliar spray
  Average Disease Score: 2.250
[1]
  Control of powdery mildew compared to grower standard: the same, or better, control of powdery mildew as the grower standard
[2]
  Laccase: 2 units/ml
